Assay results reported in ChEMBL document CHEMBL3804811 (J Med Chem, 2016).
Converted amounts (≈) assume the structure as drawn.

Columns and labels:
[1] = AUC (infinity) in Harlan nu/nu mouse at 10 mg/kg, iv administered as single dose by LC-MS/MS analysis; format: ADME, organism-based; design: dose 10 mg/kg, time infinity, route intravenous; conditions: in vivo
[2] = AUC (infinity) in Sprague-Dawley rat at 10 mg/kg, po administered as single dose by LC-MS/MS analysis; format: ADME, organism-based; design: dose 10 mg/kg, time infinity, route oral; conditions: in vivo
[3] = AUC (infinity) in Beagle dog at 10 mg/kg, po administered as single dose by LC-MS/MS analysis; format: ADME, organism-based, Canis lupus familiaris; design: dose 10 mg/kg, time infinity, route oral; conditions: in vivo
[4] = biological target: Serine/threonine-protein kinase Nek6 (Homo sapiens, UniProt Q9HC98); test: Inhibition of NEK6 (unknown origin) in presence of gamma33-ATP
[5] = Tmax in Beagle dog at 10 mg/kg, po administered as single dose by LC-MS/MS analysis; format: ADME, organism-based, Canis lupus familiaris; conditions: in vivo
[6] = Antiproliferative activity against human MV411 cells incubated for 72 hrs by cell titer-glo assay; format: functional, cell-based; conditions: MV4-11, 72 h
[7] = biological target: Mast/stem cell growth factor receptor Kit (Homo sapiens, UniProt P10721); test: Inhibition of KIT (unknown origin) in presence of gamma33-ATP
[8] = Clearance in Harlan nu/nu mouse at 10 mg/kg, iv administered as single dose by LC-MS/MS analysis; format: ADME, organism-based; conditions: in vivo
[9] = AUC (infinity) in Beagle dog at 10 mg/kg, iv administered as single dose by LC-MS/MS analysis; format: ADME, organism-based, Canis lupus familiaris; design: dose 10 mg/kg, route intravenous, time infinity; conditions: in vivo
[10] = Cmax in Beagle dog at 10 mg/kg, po administered as single dose by LC-MS/MS analysis; format: ADME, organism-based, Canis lupus familiaris; design: dose 10 mg/kg, route oral; conditions: in vivo
[11] = Oral bioavailability in Beagle dog at 10 mg/kg administered as single dose by LC-MS/MS analysis; format: ADME, organism-based, Canis lupus familiaris; conditions: in vivo
[12] = Half life in Beagle dog at 10 mg/kg, po administered as single dose by LC-MS/MS analysis; format: ADME, organism-based, Canis lupus familiaris; conditions: in vivo
[13] = tested on: Mus musculus; test: Toxicity in SCID mouse xenografted with human KARPAS299 cells assessed as body weight loss at 30 to 60 mg/kg, po bid administered for 10 days; format: organism-based, KARPAS-299; conditions: in vivo, 240 h
[14] = Half life in Sprague-Dawley rat at 10 mg/kg, po administered as single dose by LC-MS/MS analysis; format: ADME, organism-based; conditions: in vivo
[15] = AUC (infinity) in Harlan nu/nu mouse at 10 mg/kg, po administered as single dose by LC-MS/MS analysis; format: ADME, organism-based; design: dose 10 mg/kg, route oral, time infinity; conditions: in vivo
[16] = Cmax in Sprague-Dawley rat at 10 mg/kg, po administered as single dose by LC-MS/MS analysis; format: ADME, organism-based; design: dose 10 mg/kg, route oral; conditions: in vivo
[17] = Intrinsic clearance in human liver microsomes at […] preincubated for 5 mins followed by NADPH addition measured after 5 to 30 mins by LC-MS/MS analysis; format: ADME; conditions: read-out: CLH
[18] = biological target: Vascular endothelial growth factor receptor 3 (Homo sapiens, UniProt P35916); test: Inhibition of VEGFR3 (unknown origin) in presence of gamma33-ATP
[19] = Apparent permeability from basolateral to apical side in human Caco2 cells at 2.5 mg/ml after 2 hrs by reversed-phase HPLC method; format: ADME, cell-based; conditions: Caco-2
[20] = Solubility of compound at pH 7 buffer; format: physicochemical
[21] = AUC (infinity) in Sprague-Dawley rat at 10 mg/kg, iv administered as single dose by LC-MS/MS analysis; format: ADME, organism-based; design: dose 10 mg/kg, time infinity, route intravenous; conditions: in vivo
[22] = biological target: T1, Tyrosine-protein kinase JAK3 (Homo sapiens, UniProt P52333); test: Inhibition of JAK3 (unknown origin) in presence of gamma33-ATP
T1 sequence (P52333 whole entry): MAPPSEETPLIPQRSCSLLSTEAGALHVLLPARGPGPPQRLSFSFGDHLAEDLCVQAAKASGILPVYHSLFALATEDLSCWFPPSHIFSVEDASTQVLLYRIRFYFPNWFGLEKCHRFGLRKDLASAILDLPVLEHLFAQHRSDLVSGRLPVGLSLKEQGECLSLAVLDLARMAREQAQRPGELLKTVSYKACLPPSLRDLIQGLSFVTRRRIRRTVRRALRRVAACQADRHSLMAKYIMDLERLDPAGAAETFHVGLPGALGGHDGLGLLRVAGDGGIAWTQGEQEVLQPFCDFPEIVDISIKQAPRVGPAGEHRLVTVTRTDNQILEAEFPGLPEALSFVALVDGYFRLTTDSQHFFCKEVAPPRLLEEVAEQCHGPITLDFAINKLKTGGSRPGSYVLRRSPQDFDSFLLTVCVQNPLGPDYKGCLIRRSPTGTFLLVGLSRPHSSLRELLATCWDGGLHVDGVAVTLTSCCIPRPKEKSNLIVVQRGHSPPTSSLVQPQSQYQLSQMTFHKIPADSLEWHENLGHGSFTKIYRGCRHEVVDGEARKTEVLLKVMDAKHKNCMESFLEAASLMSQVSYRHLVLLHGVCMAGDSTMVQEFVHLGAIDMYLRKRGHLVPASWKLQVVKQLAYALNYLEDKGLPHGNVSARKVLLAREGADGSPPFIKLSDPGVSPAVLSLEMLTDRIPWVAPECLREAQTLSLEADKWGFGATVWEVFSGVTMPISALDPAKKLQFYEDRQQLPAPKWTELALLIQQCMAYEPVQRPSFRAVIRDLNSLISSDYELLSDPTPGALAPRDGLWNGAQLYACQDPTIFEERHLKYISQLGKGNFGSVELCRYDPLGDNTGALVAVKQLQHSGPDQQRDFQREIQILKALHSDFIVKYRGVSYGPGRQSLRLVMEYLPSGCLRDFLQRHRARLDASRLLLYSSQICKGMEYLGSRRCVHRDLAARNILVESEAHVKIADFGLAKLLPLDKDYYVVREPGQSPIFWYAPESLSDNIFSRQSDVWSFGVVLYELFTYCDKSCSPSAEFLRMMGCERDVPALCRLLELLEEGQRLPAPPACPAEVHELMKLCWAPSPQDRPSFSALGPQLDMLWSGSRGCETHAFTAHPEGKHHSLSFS

[23] = Half life in Beagle dog at 10 mg/kg, iv administered as single dose by LC-MS/MS analysis; format: ADME, organism-based, Canis lupus familiaris; conditions: in vivo
[24] = Oral bioavailability in Harlan nu/nu mouse at 10 mg/kg administered as single dose by LC-MS/MS analysis; format: ADME, organism-based; conditions: in vivo
[25] = Half life in Sprague-Dawley rat at 10 mg/kg, iv administered as single dose by LC-MS/MS analysis; format: ADME, organism-based; conditions: in vivo
[26] = Clearance in Beagle dog at 10 mg/kg, iv administered as single dose by LC-MS/MS analysis; format: ADME, organism-based, Canis lupus familiaris; conditions: in vivo
[27] = Cmax in Harlan nu/nu mouse at 10 mg/kg, iv administered as single dose by LC-MS/MS analysis; format: ADME, organism-based; design: dose 10 mg/kg, route intravenous; conditions: in vivo

Sequence of Mast/stem cell growth factor receptor Kit (P10721 whole entry): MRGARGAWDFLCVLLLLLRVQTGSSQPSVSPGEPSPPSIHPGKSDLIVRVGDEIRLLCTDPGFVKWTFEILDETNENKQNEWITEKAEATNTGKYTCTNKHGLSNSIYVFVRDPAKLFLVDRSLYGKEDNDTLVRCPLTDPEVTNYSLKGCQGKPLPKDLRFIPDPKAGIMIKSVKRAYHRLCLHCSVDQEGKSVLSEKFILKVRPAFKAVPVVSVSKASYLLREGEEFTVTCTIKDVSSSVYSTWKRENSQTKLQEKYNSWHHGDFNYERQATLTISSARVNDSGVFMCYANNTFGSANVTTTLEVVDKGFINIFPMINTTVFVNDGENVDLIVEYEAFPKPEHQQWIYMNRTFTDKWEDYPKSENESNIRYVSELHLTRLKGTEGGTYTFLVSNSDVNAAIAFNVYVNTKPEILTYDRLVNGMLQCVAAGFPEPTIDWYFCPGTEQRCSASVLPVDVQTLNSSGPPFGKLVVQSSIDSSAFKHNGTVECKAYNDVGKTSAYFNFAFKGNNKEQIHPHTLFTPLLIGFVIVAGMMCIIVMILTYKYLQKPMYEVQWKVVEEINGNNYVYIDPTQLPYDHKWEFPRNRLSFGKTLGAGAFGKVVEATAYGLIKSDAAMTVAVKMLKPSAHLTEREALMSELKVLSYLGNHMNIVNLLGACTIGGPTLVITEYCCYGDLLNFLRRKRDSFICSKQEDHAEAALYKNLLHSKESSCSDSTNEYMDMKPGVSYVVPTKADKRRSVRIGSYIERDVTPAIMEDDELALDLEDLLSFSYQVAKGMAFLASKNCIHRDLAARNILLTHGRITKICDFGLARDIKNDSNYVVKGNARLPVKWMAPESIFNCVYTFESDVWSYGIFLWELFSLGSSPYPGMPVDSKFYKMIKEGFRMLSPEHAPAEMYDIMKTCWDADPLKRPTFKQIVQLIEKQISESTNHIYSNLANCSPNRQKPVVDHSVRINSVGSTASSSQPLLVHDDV
Sequence of Vascular endothelial growth factor receptor 3 (P35916 whole entry): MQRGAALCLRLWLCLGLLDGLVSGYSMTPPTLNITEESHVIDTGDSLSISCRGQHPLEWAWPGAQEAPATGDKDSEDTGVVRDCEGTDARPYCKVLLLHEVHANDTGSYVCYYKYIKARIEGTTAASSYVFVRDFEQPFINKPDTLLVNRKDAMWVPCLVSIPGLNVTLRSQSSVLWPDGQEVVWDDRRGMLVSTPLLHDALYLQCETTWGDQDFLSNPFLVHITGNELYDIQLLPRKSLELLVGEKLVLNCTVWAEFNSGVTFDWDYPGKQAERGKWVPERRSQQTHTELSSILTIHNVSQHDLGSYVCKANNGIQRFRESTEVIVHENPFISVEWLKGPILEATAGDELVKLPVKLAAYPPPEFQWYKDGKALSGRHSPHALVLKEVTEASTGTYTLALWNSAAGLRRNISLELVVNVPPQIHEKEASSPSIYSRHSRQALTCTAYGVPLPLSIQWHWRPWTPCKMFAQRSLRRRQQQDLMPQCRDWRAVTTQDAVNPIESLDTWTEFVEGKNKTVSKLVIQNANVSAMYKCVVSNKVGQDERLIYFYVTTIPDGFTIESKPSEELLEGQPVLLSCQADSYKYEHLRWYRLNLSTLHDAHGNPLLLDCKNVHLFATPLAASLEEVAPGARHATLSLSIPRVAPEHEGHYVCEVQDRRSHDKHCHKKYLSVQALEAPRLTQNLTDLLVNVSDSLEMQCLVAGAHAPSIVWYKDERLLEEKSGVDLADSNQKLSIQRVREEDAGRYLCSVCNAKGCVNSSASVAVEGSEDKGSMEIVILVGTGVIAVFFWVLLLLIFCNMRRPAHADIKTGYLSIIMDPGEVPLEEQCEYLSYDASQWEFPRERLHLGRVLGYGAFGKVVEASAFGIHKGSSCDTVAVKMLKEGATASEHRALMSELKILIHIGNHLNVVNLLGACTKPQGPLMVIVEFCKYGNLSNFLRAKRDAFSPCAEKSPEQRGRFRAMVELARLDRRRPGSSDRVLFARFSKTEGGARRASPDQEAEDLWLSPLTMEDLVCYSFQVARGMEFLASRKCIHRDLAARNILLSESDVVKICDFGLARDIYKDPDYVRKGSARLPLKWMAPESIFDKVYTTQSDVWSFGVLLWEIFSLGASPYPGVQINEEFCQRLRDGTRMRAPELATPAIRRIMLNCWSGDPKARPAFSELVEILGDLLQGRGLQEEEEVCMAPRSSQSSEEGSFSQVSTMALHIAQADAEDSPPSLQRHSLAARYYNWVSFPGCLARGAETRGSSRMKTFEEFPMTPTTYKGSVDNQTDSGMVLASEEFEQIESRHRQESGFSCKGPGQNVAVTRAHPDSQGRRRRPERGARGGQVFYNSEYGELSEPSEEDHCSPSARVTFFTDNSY
Sequence of Serine/threonine-protein kinase Nek6 (Q9HC98 whole entry): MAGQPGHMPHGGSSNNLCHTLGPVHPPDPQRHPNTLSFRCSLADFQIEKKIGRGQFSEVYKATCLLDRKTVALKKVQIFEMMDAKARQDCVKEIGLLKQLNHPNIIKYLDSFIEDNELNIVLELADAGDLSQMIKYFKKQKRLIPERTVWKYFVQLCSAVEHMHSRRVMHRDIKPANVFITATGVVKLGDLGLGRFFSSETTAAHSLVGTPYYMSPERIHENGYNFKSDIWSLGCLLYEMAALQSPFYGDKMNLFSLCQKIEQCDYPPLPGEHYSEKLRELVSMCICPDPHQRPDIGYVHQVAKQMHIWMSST

CN1CCN(c2ccc(C(=O)Nc3n[nH]c4ccc(Cc5cc(F)cc(F)c5)cc34)c(NC3CCOCC3)c2)CC1 [ENTRECTINIB]
AUC(0-inf) [1]: 19.6 µM·h
AUC(0-inf) [2]: 5.13 µM·h
AUC(0-inf) [3]: 5.7 µM·h
IC50 [4]: > 10 µM
Tmax [5]: 2 h
IC50 [6]: 0.081 µM
IC50 [7]: > 1 µM
clearance [8]: 0.81 L/h/kg
AUC(0-inf) [9]: 17.6 µM·h
Cmax [10]: 0.6 µM
bioavailability [11]: 32%
half-life [12]: 15.2 h
Activity [13]: Non-toxic
half-life [14]: 3.8 h
AUC(0-inf) [15]: 17.4 µM·h
Cmax [16]: 0.5 µM
CLint scaled [17]: 1.98 L/h/kg
IC50 [18]: > 1 µM
Papp B→A at 2 h, 2.5 mg/ml [19]: 30 nm/s
solubility [20]: 20 µM (≈ 11.2 µg/mL)
AUC(0-inf) [21]: 15.1 µM·h
IC50 [22]: 0.349 µM
half-life [23]: 11.9 h
bioavailability [24]: 77%
half-life [25]: 3.5 h
clearance [26]: 1.05 L/h/kg
Cmax [27]: 4.9 µM
